Source: ChEMBL document CHEMBL6087436, “The novel β-hairpin antimicrobial peptide D-G(RF)3 demonstrates exceptional antibacterial efficacy” (Eur J Med Chem, 2025)
≈ marks a conversion by molar mass, not a printed value. Calls of active or inactive are those of the source. The rule behind the calls is not given here.

Assays:
Staphylococcus aureus [1] = assay: Antibacterial activity against Staphylococcus aureus ATCC 25923 in presence of 1 mM MgCl2; type: functional, organism-based
Cell membrane [2] = assay: Induction of Inner membrane permeabilization in Escherichia coli ML-35 ATCC […] measured every 5 mins for 120 mins by ONPG dye based assay; type: subcellular
Klebsiella pneumoniae [3] = assay: In vivo antibacterial activity against Klebsiella pneumoniae ATCC 700603 infected in male Balb/c mouse lung infection model assessed as reduction in alveoli expansion at 10 mg/kg, ip measured after 24 hrs by H and E staining based analysis; type: functional, organism-based
Staphylococcus aureus [4] = assay: Inhibition of biofilm formation in Staphylococcus aureus ATCC 25923 incubated for 24 hrs by crystal violet staining based analysis; type: functional, organism-based; conditions: dose 1-32 µM
[5] = Retention time of the compound by RP-HPLC analysis; type: physicochemical
[6] = Stability of compound in mouse plasma assessed as degradation of compound by measuring half life incubated for 48 hrs by RP-HPLC analysis; type: ADME, cell-free
Escherichia coli [7] = assay: Synergistic antibacterial activity against Escherichia coli assessed as fractional inhibitory concentration index in presence of polymyxin B incubated for 18 hrs by checkerboard method; type: functional
Cell membrane [8] = assay: Induction of cell membrane permeability in Escherichia coli assessed as bacterial breakage at 2 times MIC by SEM analysis; type: subcellular
Pseudomonas aeruginosa [9] = assay: Antibacterial activity against Pseudomonas aeruginosa ATCC 27853 in presence of 6 uM NH4Cl; type: functional, organism-based
Klebsiella pneumoniae [10] = assay: In vivo antibacterial activity against Klebsiella pneumoniae ATCC 700603 infected in male Balb/c mouse lung infection model assessed as reduction in pulmonary bacterial load at 5 mg/kg, ip measured after 24 hrs (reference value: 3.05 x 10^9 CFU/g); type: functional
Pseudomonas aeruginosa [11] = assay: Induction of drug resistance in Pseudomonas aeruginosa ATCC 27853 assessed as fold increase in MIC incubated for 24 hrs and measured under 40 passages; type: functional
Klebsiella pneumoniae [12] = assay: Inhibition of biofilm formation in Klebsiella pneumoniae ATCC 700603 incubated for 24 hrs by crystal violet staining based analysis; type: functional, organism-based; conditions: dose 1-32 µM
Klebsiella pneumoniae [13] = assay: Synergistic antibacterial activity against Klebsiella pneumoniae assessed as fractional inhibitory concentration index in presence of kanamycin incubated for 18 hrs by checkerboard method; type: functional
Staphylococcus aureus [14] = assay: Antibacterial activity against Staphylococcus aureus ATCC 25923 in presence of 8 uM ZnCl2; type: functional, organism-based
[15] = tested on: Staphylococcus epidermidis; assay: Antibacterial activity against Staphylococcus epidermidis ATCC 12228 assessed as inhibition of bacterial growth incubated for 18 hrs by microbroth dilution assay; type: functional
Pseudomonas aeruginosa [16] = assay: Antibacterial activity against Pseudomonas aeruginosa ATCC 27853 in presence of 1 mM MgCl2; type: functional, organism-based
Klebsiella pneumoniae [17] = assay: Inhibition of biofilm formation in Klebsiella pneumoniae ATCC 700603 at 1 uM incubated for 24 hrs by crystal violet staining based analysis; type: functional, organism-based
Pseudomonas aeruginosa [18] = assay: Inhibition of biofilm formation in Pseudomonas aeruginosa ATCC 27853 incubated for 24 hrs by crystal violet staining based analysis; type: functional, organism-based; conditions: dose 1-32 µM
Cell membrane [19] = assay: Induction of cell membrane permeability in Escherichia coli assessed as cluster formation at 2 times MIC by SEM analysis; type: subcellular
Klebsiella pneumoniae [20] = assay: Synergistic antibacterial activity against Klebsiella pneumoniae assessed as fractional inhibitory concentration index in presence of rifampin incubated for 18 hrs by checkerboard method; type: functional
Staphylococcus aureus [21] = assay: Antibacterial activity against Staphylococcus aureus ATCC 25923 assessed as inhibition of bacterial growth incubated for 18 hrs by microbroth dilution assay; type: functional
[22] = Acute toxicity in male balb/c mouse assessed as lethal dose at ip administration; type: organism-based; conditions: in vivo
Staphylococcus aureus [23] = assay: Antibacterial activity against Staphylococcus aureus ATCC 25923 in presence of 2 mM CaCl2; type: functional, organism-based
[24] = Hemolytic activity in Kunming mouse erythrocytes assessed as hemolytic rate at 256 uM incubated for 1 hr by multimode reader analysis relative to control; type: toxicity, cell-based, Erythrocyte; conditions: read-out: Activity
Escherichia coli [25] = assay: Inhibition of biofilm formation in Escherichia coli ATCC 25922 incubated for 24 hrs by crystal violet staining based analysis; type: functional, organism-based; conditions: dose 1-32 µM
Staphylococcus aureus [26] = assay: Antibacterial activity against Staphylococcus aureus ATCC 25923 in presence of 4.5 mM KCl; type: functional, organism-based
Cell membrane [27] = assay: Induction of cell membrane permeability in Escherichia coli assessed as grooves shallower at 2 times MIC by SEM analysis; type: subcellular
Pseudomonas aeruginosa [28] = assay: Synergistic antibacterial activity against Pseudomonas aeruginosa assessed as fractional inhibitory concentration index in presence of rifampin incubated for 18 hrs by checkerboard method; type: functional
Pseudomonas aeruginosa [29] = assay: Synergistic antibacterial activity against Pseudomonas aeruginosa assessed as fractional inhibitory concentration index in presence of imipenem incubated for 18 hrs by checkerboard method; type: functional
Staphylococcus aureus [30] = assay: Antibacterial activity against Staphylococcus aureus ATCC 25923 in presence of 4 uM FeCl3; type: functional, organism-based
[31] = Hemolytic activity in Kunming mouse erythrocytes assessed as hemolysis incubated for 1 hr by multimode reader analysis; type: toxicity, cell-based; conditions: erythrocyte
Pseudomonas aeruginosa [32] = assay: Antibacterial activity against Pseudomonas aeruginosa ATCC 27853 in presence of 4 uM FeCl3; type: functional, organism-based
Pseudomonas aeruginosa [33] = assay: Antibacterial activity against Pseudomonas aeruginosa ATCC 27853 in presence of 4.5 mM KCl; type: functional, organism-based
Staphylococcus aureus [34] = assay: Antibacterial activity against Staphylococcus aureus ATCC 25923 in presence of 6 uM NH4Cl; type: functional, organism-based
Escherichia coli [35] = assay: Antibacterial activity against Escherichia coli ATCC 25922 assessed as inhibition of bacterial growth incubated for 18 hrs by microbroth dilution assay; type: functional
Staphylococcus aureus [36] = assay: Synergistic antibacterial activity against Staphylococcus aureus assessed as fractional inhibitory concentration index in presence of bacitracin incubated for 18 hrs by checkerboard method; type: functional
Pseudomonas aeruginosa [37] = assay: Antibacterial activity against Pseudomonas aeruginosa ATCC 27853 in presence of 8 uM ZnCl2; type: functional, organism-based
Klebsiella pneumoniae [38] = assay: Antibacterial activity against Klebsiella pneumoniae ATCC 700603 assessed as inhibition of bacterial growth incubated for 18 hrs by microbroth dilution assay; type: functional
Escherichia coli [39] = assay: Inhibition of biofilm formation in Escherichia coli ATCC 25922 at >= 2 uM incubated for 24 hrs by crystal violet staining based analysis; type: functional, organism-based
Klebsiella pneumoniae [40] = assay: In vivo antibacterial activity against Klebsiella pneumoniae ATCC 700603 infected in male Balb/c mouse lung infection model assessed as reduction in pulmonary bacterial load at 10 mg/kg, ip measured after 24 hrs (reference value: 3.05 x 10^9 CFU/g); type: functional
Bacillus subtilis = assay: Antibacterial activity against Bacillus subtilis ATCC 23857 assessed as inhibition of bacterial growth incubated for 18 hrs by microbroth dilution assay; type: functional
Cell membrane [41] = assay: Induction of Outer membrane permeabilization in Escherichia coli assessed as increase in fluorescence intensity incubated for 1 min by NPN-dye based fluorescence analysis; type: subcellular
Pseudomonas aeruginosa [42] = assay: Antibacterial activity against Pseudomonas aeruginosa ATCC 27853 in presence of 2 mM CaCl2; type: functional, organism-based
Cell membrane [43] = assay: Induction of Cytoplasmic membrane depolarization in Staphylococcus aureus measured for every 10 mins by DiSC3(5) dye based fluorescence method
Escherichia coli [44] = assay: Synergistic antibacterial activity against Escherichia coli assessed as fractional inhibitory concentration index in presence of rifampin incubated for 18 hrs by checkerboard method; type: functional

With `N=C(N)NCCC[C@H](NC(=O)CNC(=O)[C@H]1CCCN1C(=O)[C@H](CCCNC(=N)N)NC(=O)[C@H](Cc1ccccc1)NC(=O)[C@H](CCCNC(=N)N)NC(=O)[C@H](Cc1ccccc1)NC(=O)[C@H](CCCNC(=N)N)NC(=O)[C@@H](N)Cc1ccccc1)C(=O)N[C@@H](Cc1ccccc1)C(=O)N[C@@H](CCCNC(=N)N)C(=O)N[C@@H](Cc1ccccc1)C(=O)N[C@@H](CCCNC(=N)N)C(=O)N[C@@H](Cc1ccccc1)C(N)=O` the Activity (Staphylococcus aureus [1]) was “Active”, the Activity (Cell membrane [2]) was “Dose-dependent-effect” and the Activity (Klebsiella pneumoniae [3]) was “Active”. The inhibition (Staphylococcus aureus [4]) was “Dose-dependent-effect”, the Retention_time [5] was 14.433 min and the half-life [6] was 3.03 h. For the same compound, the “fractional inhibitory concentration index (FICI)” value (Escherichia coli [7]) was 0.25, the Activity (Cell membrane [8]) was “Active” and the Activity (Pseudomonas aeruginosa [9]) was “Active”. The Activity (Klebsiella pneumoniae [10]) was 1.52 10^8CFU/g, the “fold change (FC)” value (Pseudomonas aeruginosa [11]) was less than 4 and the inhibition (Klebsiella pneumoniae [12]) was “Dose-dependent-effect”. For the same compound, the “fractional inhibitory concentration index (FICI)” value (Klebsiella pneumoniae [13]) was 0.313, the Activity (Staphylococcus aureus [14]) was “Active” and the MIC [15] was 2 µM (≈ 3.98 µg/mL). The Activity (Pseudomonas aeruginosa [16]) was “Active”, the inhibition (Klebsiella pneumoniae [17]) was “Active; Less Effective Than Polymyxin B” and the inhibition (Pseudomonas aeruginosa [18]) was “Dose-dependent-effect”. The Activity (Cell membrane [19]) was “Active”, the “fractional inhibitory concentration index (FICI)” value (Klebsiella pneumoniae [20]) was 0.313 and the MIC (Staphylococcus aureus [21]) was 4 µM (≈ 7.97 µg/mL). The LD50 [22] was 81.3 mg/kg, the Activity (Staphylococcus aureus [23]) was “Active” and the hemolysis at 1 h, 256 µM [24] was 9.7%. The inhibition (Escherichia coli [25]) was “Dose-dependent-effect”, the Activity (Staphylococcus aureus [26]) was “Active” and the Activity (Cell membrane [27]) was “Active”. The “fractional inhibitory concentration index (FICI)” value (Pseudomonas aeruginosa [28]) was 0.313, the “fractional inhibitory concentration index (FICI)” value (Pseudomonas aeruginosa [29]) was 0.313 and the Activity (Staphylococcus aureus [30]) was “Active”. For the same compound, the MHC10 [31] was 512 µM, the Activity (Pseudomonas aeruginosa [32]) was “Active” and the Activity (Pseudomonas aeruginosa [33]) was “Active”. The Activity (Staphylococcus aureus [34]) was “Active”, the MIC (Escherichia coli [35]) was 4 µM (≈ 7.97 µg/mL) and the “fractional inhibitory concentration index (FICI)” value (Staphylococcus aureus [36]) was 0.375. For the same compound, the Activity (Pseudomonas aeruginosa [37]) was “Active”, the MIC (Klebsiella pneumoniae [38]) was 8 µM (≈ 15.9 µg/mL) and the inhibition (Escherichia coli [39]) was “Active”. For the same compound, the Activity (Klebsiella pneumoniae [40]) was 4.93 10^7CFU/g, the MIC (Bacillus subtilis) was 4 µM (≈ 7.97 µg/mL) and the Activity (Cell membrane [41]) was “Active”. The Activity (Pseudomonas aeruginosa [42]) was “Active”, the Activity (Cell membrane [43]) was “Dose-dependent-effect” and the “fractional inhibitory concentration index (FICI)” value (Escherichia coli [44]) was 0.313.

In the case of `N=C(N)NCCC[C@@H](NC(=O)CNC(=O)[C@H]1CCCN1C(=O)[C@@H](CCCNC(=N)N)NC(=O)[C@@H](Cc1ccccc1)NC(=O)[C@@H](CCCNC(=N)N)NC(=O)[C@@H](Cc1ccccc1)NC(=O)[C@@H](CCCNC(=N)N)NC(=O)[C@H](N)Cc1ccccc1)C(=O)N[C@H](Cc1ccccc1)C(=O)N[C@H](CCCNC(=N)N)C(=O)N[C@H](Cc1ccccc1)C(=O)N[C@H](CCCNC(=N)N)C(=O)N[C@H](Cc1ccccc1)C(N)=O`, the Activity (Staphylococcus aureus [1]) is reported as “Active”, the Activity (Cell membrane [2]) is reported as “Dose-dependent-effect” and the Activity (Klebsiella pneumoniae [3]) is reported as “Active”. For the same compound, the inhibition (Staphylococcus aureus [4]) was “Dose-dependent-effect”, the Retention_time [5] was 14.438 min and the half-life [6] was greater than 48 h. For the same compound, the “fractional inhibitory concentration index (FICI)” value (Escherichia coli [7]) was 0.188, the Activity (Cell membrane [8]) was “Active” and the Activity (Pseudomonas aeruginosa [9]) was “Active”. The Activity (Klebsiella pneumoniae [10]) was 5.98 10^7CFU/g, the “fold change (FC)” value (Pseudomonas aeruginosa [11]) was less than 4 and the inhibition (Klebsiella pneumoniae [12]) was “Dose-dependent-effect”. The “fractional inhibitory concentration index (FICI)” value (Klebsiella pneumoniae [13]) was 0.375, the Activity (Staphylococcus aureus [14]) was “Active” and the MIC [15] was 2 µM (≈ 3.98 µg/mL). For the same compound, the Activity (Pseudomonas aeruginosa [16]) was “Active”, the inhibition (Klebsiella pneumoniae [17]) was “Active; Less Effective Than Polymyxin B” and the inhibition (Pseudomonas aeruginosa [18]) was “Dose-dependent-effect”. For the same compound, the Activity (Cell membrane [19]) was “Active”, the “fractional inhibitory concentration index (FICI)” value (Klebsiella pneumoniae [20]) was 0.313 and the MIC (Staphylococcus aureus [21]) was 4 µM (≈ 7.97 µg/mL). For the same compound, the LD50 [22] was 45.3 mg/kg, the Activity (Staphylococcus aureus [23]) was “Active” and the hemolysis at 1 h, 256 µM [24] was 4.3%. For the same compound, the inhibition (Escherichia coli [25]) was “Dose-dependent-effect”, the Activity (Staphylococcus aureus [26]) was “Active” and the Activity (Cell membrane [27]) was “Active”. The “fractional inhibitory concentration index (FICI)” value (Pseudomonas aeruginosa [28]) was 0.313, the “fractional inhibitory concentration index (FICI)” value (Pseudomonas aeruginosa [29]) was 0.375 and the Activity (Staphylococcus aureus [30]) was “Active”. The MHC10 [31] was greater than 256 µM, the Activity (Pseudomonas aeruginosa [32]) was “Active” and the Activity (Pseudomonas aeruginosa [33]) was “Active”. For the same compound, the Activity (Staphylococcus aureus [34]) was “Active”, the MIC (Escherichia coli [35]) was 8 µM (≈ 15.9 µg/mL) and the “fractional inhibitory concentration index (FICI)” value (Staphylococcus aureus [36]) was 0.375. For the same compound, the Activity (Pseudomonas aeruginosa [37]) was “Active”, the MIC (Klebsiella pneumoniae [38]) was 8 µM (≈ 15.9 µg/mL) and the inhibition (Escherichia coli [39]) was “Active”. For the same compound, the Activity (Klebsiella pneumoniae [40]) was 2.48 10^7CFU/g, the MIC (Bacillus subtilis) was 2 µM (≈ 3.98 µg/mL) and the Activity (Cell membrane [41]) was “Active”. The Activity (Pseudomonas aeruginosa [42]) was “Active”, the Activity (Cell membrane [43]) was “Dose-dependent-effect” and the “fractional inhibitory concentration index (FICI)” value (Escherichia coli [44]) was 0.25.
